Experimental data reported in PubChem BioAssay (NCI).
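All cell lines were grown in 96-well plates and treated with compound for 48 hours. The concentration for 50% growth inhibition is given as GI50. The concentration for full growth arrest is given as TGI.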

How the values were obtained:
Experiment in all cases: NCI-60 cell line screen, 48 h
SW-620 colon = tested on: SW-620 colon
KM12 colon = tested on: KM12 colon
SK-MEL-28 melanoma = tested on: SK-MEL-28 melanoma
IGROV1 ovarian = tested on: IGROV1 ovarian
SF-268 CNS = tested on: SF-268 CNS
UACC-62 melanoma = tested on: UACC-62 melanoma
A498 renal = tested on: A498 renal
HT29 colon = tested on: HT29 colon
OVCAR-5 ovarian = tested on: OVCAR-5 ovarian
ACHN renal = tested on: ACHN renal
SK-MEL-5 melanoma = tested on: SK-MEL-5 melanoma
SK-MEL-2 melanoma = tested on: SK-MEL-2 melanoma
A549 NSCLC = tested on: A549 NSCLC
NCI-H23 lung = tested on: NCI-H23 lung
M14 melanoma = tested on: M14 melanoma
HL-60(TB) leukemia = tested on: HL-60(TB) leukemia
SR leukemia = tested on: SR leukemia
CCRF-CEM leukemia = tested on: CCRF-CEM leukemia
MDA-MB-435 = tested on: MDA-MB-435
T-47D breast = tested on: T-47D breast
OVCAR-8 ovarian = tested on: OVCAR-8 ovarian
U251 CNS = tested on: U251 CNS
CAKI-1 renal = tested on: CAKI-1 renal
UO-31 renal = tested on: UO-31 renal
SF-295 CNS = tested on: SF-295 CNS
SNB-19 CNS = tested on: SNB-19 CNS
HCC-2998 colon = tested on: HCC-2998 colon
MALME-3M melanoma = tested on: MALME-3M melanoma
SN12C renal = tested on: SN12C renal
HS 578T breast = tested on: HS 578T breast
MCF7 breast = tested on: MCF7 breast
MOLT-4 leukemia = tested on: MOLT-4 leukemia
HOP-92 NSCLC = tested on: HOP-92 NSCLC
NCI-H460 lung = tested on: NCI-H460 lung
OVCAR-4 ovarian = tested on: OVCAR-4 ovarian
NCI-H226 lung = tested on: NCI-H226 lung
PC-3 prostate = tested on: PC-3 prostate
SK-OV-3 ovarian = tested on: SK-OV-3 ovarian
SNB-75 CNS = tested on: SNB-75 CNS
786-0 renal = tested on: 786-0 renal
HCT-15 colon = tested on: HCT-15 colon
MDA-MB-231 breast = tested on: MDA-MB-231 breast
OVCAR-3 ovarian = tested on: OVCAR-3 ovarian
NCI/ADR-RES ovarian = tested on: NCI/ADR-RES ovarian
COLO 205 colon = tested on: COLO 205 colon
HCT-116 colon = tested on: HCT-116 colon
NCI-H522 lung = tested on: NCI-H522 lung
LOX IMVI melanoma = tested on: LOX IMVI melanoma
RXF 393 renal = tested on: RXF 393 renal
K-562 leukemia = tested on: K-562 leukemia
BT-549 breast = tested on: BT-549 breast
DU-145 prostate = tested on: DU-145 prostate
SF-539 CNS = tested on: SF-539 CNS
RPMI-8226 leukemia = tested on: RPMI-8226 leukemia
UACC-257 melanoma = tested on: UACC-257 melanoma
HOP-62 NSCLC = tested on: HOP-62 NSCLC

Compound: O=C1Nc2ccccc2/C1=C/C(=N/c1nnc(-c2ccc(Cl)cc2)s1)c1ccccc1
- GI50 (SW-620 colon): 1.21 µM
- TGI (SW-620 colon): 2.82 µM
- GI50 (KM12 colon): 4.85 µM
- TGI (KM12 colon): 15.6 µM
- GI50 (SK-MEL-28 melanoma): 2.36 µM
- TGI (SK-MEL-28 melanoma): 5.59 µM
- GI50 (IGROV1 ovarian): 2.1 µM
- TGI (IGROV1 ovarian): 5.59 µM
- GI50 (SF-268 CNS): 4.25 µM
- TGI (SF-268 CNS): 16.3 µM
- GI50 (UACC-62 melanoma): 1.93 µM
- TGI (UACC-62 melanoma): 4.58 µM
- GI50 (A498 renal): 9.03 µM
- TGI (A498 renal): 26.1 µM
- GI50 (HT29 colon): 1.94 µM
- TGI (HT29 colon): 5.61 µM
- GI50 (OVCAR-5 ovarian): 1.81 µM
- TGI (OVCAR-5 ovarian): 4.86 µM
- GI50 (ACHN renal): 1.41 µM
- TGI (ACHN renal): 2.83 µM
- GI50 (SK-MEL-5 melanoma): 12.6 µM
- TGI (SK-MEL-5 melanoma): 26.9 µM
- GI50 (SK-MEL-2 melanoma): 3.21 µM
- TGI (SK-MEL-2 melanoma): 9.32 µM
- GI50 (A549 NSCLC): 7.78 µM
- TGI (A549 NSCLC): 23.8 µM
- GI50 (NCI-H23 lung): 2.96 µM
- TGI (NCI-H23 lung): 11.2 µM
- GI50 (M14 melanoma): 2.37 µM
- TGI (M14 melanoma): 6.28 µM
- GI50 (HL-60(TB) leukemia): 1.78 µM
- TGI (HL-60(TB) leukemia): 5.54 µM
- GI50 (SR leukemia): 0.964 µM
- TGI (SR leukemia): 6.05 µM
- GI50 (CCRF-CEM leukemia): 1.16 µM
- TGI (CCRF-CEM leukemia): 4.28 µM
- GI50 (MDA-MB-435): 2.55 µM
- TGI (MDA-MB-435): 7.23 µM
- GI50 (T-47D breast): 2.31 µM
- TGI (T-47D breast): 10.2 µM
- GI50 (OVCAR-8 ovarian): 2.81 µM
- TGI (OVCAR-8 ovarian): 10.1 µM
- GI50 (U251 CNS): 4.04 µM
- TGI (U251 CNS): 15.5 µM
- GI50 (CAKI-1 renal): 1.43 µM
- TGI (CAKI-1 renal): 4.92 µM
- GI50 (UO-31 renal): 1.4 µM
- TGI (UO-31 renal): 3.48 µM
- GI50 (SF-295 CNS): 11.6 µM
- TGI (SF-295 CNS): 25.6 µM
- GI50 (SNB-19 CNS): 12.6 µM
- TGI (SNB-19 CNS): 25.4 µM
- GI50 (HCC-2998 colon): 8.11 µM
- TGI (HCC-2998 colon): 20.9 µM
- GI50 (MALME-3M melanoma): 2.07 µM
- TGI (MALME-3M melanoma): 6.18 µM
- GI50 (SN12C renal): 2.16 µM
- TGI (SN12C renal): 5.97 µM
- GI50 (HS 578T breast): 3.25 µM
- TGI (HS 578T breast): 16 µM
- GI50 (MCF7 breast): 2.36 µM
- TGI (MCF7 breast): 10.8 µM
- GI50 (MOLT-4 leukemia): 2.27 µM
- TGI (MOLT-4 leukemia): 6.01 µM
- GI50 (HOP-92 NSCLC): 0.969 µM
- TGI (HOP-92 NSCLC): 3.03 µM
- GI50 (NCI-H460 lung): 5.95 µM
- TGI (NCI-H460 lung): 21.9 µM
- GI50 (OVCAR-4 ovarian): 2.56 µM
- TGI (OVCAR-4 ovarian): 12.2 µM
- GI50 (NCI-H226 lung): 3.19 µM
- TGI (NCI-H226 lung): 13.4 µM
- GI50 (PC-3 prostate): 1.93 µM
- TGI (PC-3 prostate): 5.88 µM
- GI50 (SK-OV-3 ovarian): 5.86 µM
- TGI (SK-OV-3 ovarian): 17.4 µM
- GI50 (SNB-75 CNS): 2.53 µM
- TGI (SNB-75 CNS): 13.7 µM
- GI50 (786-0 renal): 1.72 µM
- TGI (786-0 renal): 3.4 µM
- GI50 (HCT-15 colon): 1.4 µM
- TGI (HCT-15 colon): 3.28 µM
- GI50 (MDA-MB-231 breast): 2.14 µM
- TGI (MDA-MB-231 breast): 6.21 µM
- GI50 (OVCAR-3 ovarian): 1.26 µM
- TGI (OVCAR-3 ovarian): 2.66 µM
- GI50 (NCI/ADR-RES ovarian): 3.31 µM
- TGI (NCI/ADR-RES ovarian): 12.2 µM
- GI50 (COLO 205 colon): 1.77 µM
- TGI (COLO 205 colon): 3.4 µM
- GI50 (HCT-116 colon): 1.06 µM
- TGI (HCT-116 colon): 2.38 µM
- GI50 (NCI-H522 lung): 0.518 µM
- TGI (NCI-H522 lung): 1.21 µM
- GI50 (LOX IMVI melanoma): 1.54 µM
- TGI (LOX IMVI melanoma): 3.13 µM
- GI50 (RXF 393 renal): 1.5 µM
- TGI (RXF 393 renal): 3.07 µM
- GI50 (K-562 leukemia): 1.75 µM
- TGI (K-562 leukemia): 11.4 µM
- GI50 (BT-549 breast): 1.79 µM
- TGI (BT-549 breast): 3.66 µM
- GI50 (DU-145 prostate): 2.52 µM
- TGI (DU-145 prostate): 6.9 µM
- GI50 (SF-539 CNS): 1.81 µM
- TGI (SF-539 CNS): 4.08 µM
- GI50 (RPMI-8226 leukemia): 2.07 µM
- TGI (RPMI-8226 leukemia): 5.4 µM
- GI50 (UACC-257 melanoma): 2.82 µM
- TGI (UACC-257 melanoma): 8.64 µM
- GI50 (HOP-62 NSCLC): 7.16 µM
- TGI (HOP-62 NSCLC): 21.5 µM
